Reference: patent publication US20210198613A1, “MICROELECTRODE ARRAY AND USES THEREOF” (AXOSIM, INC., priority 2018, published 2021)
Where two headings read alike, the source gives them in different places.

Tests used:
[1] = system: neuronal cell death in vitro; settings: cited from earlier work
[2] = system: embryonic dorsal root ganglion (DRG) explants; assay: Nerve-On-A-Chip compound action potential (CAP) electrophysiology; type: cell-based, rat; settings: 40 μM, 48-hr application
[3] = system: embryonic dorsal root ganglion (DRG) explants; settings: 40 μM, 48-hr application
[4] = system: embryonic dorsal root ganglion (DRG) explants; settings: cited from earlier work

For `[CH3][Hg][Cl]` [Methylmercury], the “In Vitro Neurotoxic dose” value ([1]; literature value, used as acute 48-hr dose of the planned pilot study) is listed as 10 mM.
In the case of `C=C[C@@]1(C)CC(=O)[C@]2(O)[C@@]3(C)[C@@H](O)CCC(C)(C)[C@@H]3[C@H](O)[C@H](OC(C)=O)[C@@]2(C)O1` [forskolin], the “reduction in CAP amplitude” value [2] is reported as about 50%, the “reduction in conduction velocity” value [2] is reported as about 50% and the dysmyelination by histology [3] is reported as “strong evidence of dysmyelination”. The “increase in G-ratio (thinning of myelin sheath)” value ([3]; histology, data not shown) was 50% and the “reduction in % myelinated axons” value ([3]; histology, data not shown) was 70%.
For `CCCCCC` [n-hexane], the “In Vitro Neurotoxic dose” value [1] is given as 765 mM.
In the case of `NC1=N[C@H](O)[C@H]2[C@H]3O[C@]4(O)O[C@@H]([C@@H](O)[C@@]2(N1)[C@@H]4O)[C@]3(O)CO` [tetrodotoxin], the “effect on CAP population responses” value [4] is listed as “reversibly abolished”.
